Columns and labels:
[1] = target: Serine/threonine-protein kinase pim-3 (Homo sapiens) (UniProt Q86V86); settings: Compound concentration 1000.0 nM
[2] = target: Interleukin-1 receptor-associated kinase 1 (Homo sapiens) (UniProt P51617); settings: Compound concentration 1000.0 nM
[3] = target: Serine/threonine-protein kinase mTOR (Homo sapiens) (UniProt P42345); settings: Compound concentration 1000.0 nM
[4] = target: Serine/threonine-protein kinase Nek4 (Homo sapiens) (UniProt P51957); settings: Compound concentration 1000.0 nM
[5] = target: Mitogen-activated protein kinase 10 (Homo sapiens) (UniProt P53779); settings: Compound concentration 1000.0 nM
[6] = target: Serine/threonine-protein kinase Nek2 (Homo sapiens) (UniProt P51955); settings: Compound concentration 1000.0 nM
[7] = tested on: Serine/threonine-protein kinase B-raf (Homo sapiens), P15056 [V600E]; settings: Compound concentration 1000.0 nM
[8] = target: Ribosomal protein S6 kinase alpha-6 (Homo sapiens) (UniProt Q9UK32); settings: Compound concentration 1000.0 nM
[9] = target: Tyrosine-protein kinase Srms (Homo sapiens) (UniProt Q9H3Y6); settings: Compound concentration 1000.0 nM
[10] = target: Focal adhesion kinase 1 (Homo sapiens) (UniProt Q05397); settings: Compound concentration 1000.0 nM
[11] = target: Alpha-1D adrenergic receptor (Homo sapiens) (UniProt P25100); settings: Compound concentration 10.0 uM
[12] = target: Angiopoietin-1 receptor (Homo sapiens) (UniProt Q02763); settings: Compound concentration 1000.0 nM
[13] = target: G protein-coupled receptor kinase 4 (Homo sapiens) (UniProt P32298); settings: Compound concentration 1000.0 nM
[14] = target: Tyrosine-protein kinase ZAP-70 (Homo sapiens) (UniProt P43403); settings: Compound concentration 1000.0 nM
[15] = target: Phosphatidylinositol 4-phosphate 3-kinase C2 domain-containing subunit beta (Homo sapiens) (UniProt O00750); settings: Compound concentration 1000.0 nM
[16] = tested on: Mast/stem cell growth factor receptor Kit (Homo sapiens), P10721 [V559D]; settings: Compound concentration 1000.0 nM
[17] = target: Activin receptor type-2A (Homo sapiens) (UniProt P27037); settings: Compound concentration 1000.0 nM
[18] = target: Serine/threonine-protein kinase PAK 1 (Homo sapiens) (UniProt Q13153); settings: Compound concentration 1000.0 nM
[19] = target: Casein kinase I isoform alpha-like (Homo sapiens) (UniProt Q8N752); settings: Compound concentration 1000.0 nM
[20] = target: Fibroblast growth factor receptor 1 (Homo sapiens) (UniProt P11362); settings: Compound concentration 1000.0 nM
[21] = target: Insulin receptor-related protein (Homo sapiens) (UniProt P14616); settings: Compound concentration 1000.0 nM
[22] = target: Epidermal growth factor receptor (Homo sapiens) (UniProt P00533); settings: Compound concentration 1000.0 nM
[23] = target: Homeodomain-interacting protein kinase 2 (Homo sapiens) (UniProt Q9H2X6); settings: Compound concentration 1000.0 nM
[24] = target: Tyrosine-protein kinase BTK (Homo sapiens) (UniProt Q06187); settings: Compound concentration 1000.0 nM
[25] = target: 3-phosphoinositide-dependent protein kinase 1 (Homo sapiens) (UniProt O15530); settings: Compound concentration 1000.0 nM
[26] = target: Phosphorylase b kinase regulatory subunit alpha, liver isoform (Homo sapiens) (UniProt P46019); settings: Compound concentration 1000.0 nM
[27] = target: SRSF protein kinase 2 (Homo sapiens) (UniProt P78362); settings: Compound concentration 1000.0 nM
[28] = target: Serine/threonine-protein kinase NIM1 (Homo sapiens) (UniProt Q8IY84); settings: Compound concentration 1000.0 nM
[29] = target: Alpha-1A adrenergic receptor (Homo sapiens) (UniProt P35348); settings: Compound concentration 10.0 uM
[30] = target: Cyclin-dependent kinase 3 (Homo sapiens) (UniProt Q00526); settings: Compound concentration 1000.0 nM
[31] = target: SNF-related serine/threonine-protein kinase (Homo sapiens) (UniProt Q9NRH2); settings: Compound concentration 1000.0 nM
[32] = target: Serine/threonine-protein kinase Nek1 (Homo sapiens) (UniProt Q96PY6); settings: Compound concentration 1000.0 nM
[33] = tested on: Mast/stem cell growth factor receptor Kit (Homo sapiens), P10721 [V559D,V654A]; settings: Compound concentration 1000.0 nM
[34] = target: Platelet-derived growth factor receptor alpha (Homo sapiens) (UniProt P16234); settings: Compound concentration 1000.0 nM
[35] = target: D(1A) dopamine receptor (Homo sapiens) (UniProt P21728); settings: Compound concentration 10.0 uM
[36] = target: Serine/threonine-protein kinase PRP4 homolog (Homo sapiens) (UniProt Q13523); settings: Compound concentration 1000.0 nM
[37] = target: Receptor-interacting serine/threonine-protein kinase 1 (Homo sapiens) (UniProt Q13546); settings: Compound concentration 1000.0 nM
[38] = target: Mitogen-activated protein kinase 8 (Homo sapiens) (UniProt P45983); settings: Compound concentration 1000.0 nM
[39] = target: Ribosomal protein S6 kinase alpha-6 (Homo sapiens) (UniProt Q9UK32); settings: Compound concentration 1000.0 nM; remark: listed apart in the source
[40] = target: Serine/threonine-protein kinase DCLK2 (Homo sapiens) (UniProt Q8N568); settings: Compound concentration 1000.0 nM
[41] = target: Ephrin type-A receptor 1 (Homo sapiens) (UniProt P21709); settings: Compound concentration 1000.0 nM
[42] = target: Cyclin-dependent kinase 15 (Homo sapiens) (UniProt Q96Q40); settings: Compound concentration 1000.0 nM
[43] = target: Serine/threonine-protein kinase RIO3 (Homo sapiens) (UniProt O14730); settings: Compound concentration 1000.0 nM
[44] = target: 5-hydroxytryptamine receptor 1E (Homo sapiens) (UniProt P28566); settings: Compound concentration 10.0 uM
[45] = target: Serine/threonine-protein kinase Nek10 (Homo sapiens) (UniProt Q6ZWH5); settings: Compound concentration 1000.0 nM

Ribosomal protein S6 kinase alpha-6 (Homo sapiens), sequence (Q9UK32 whole entry): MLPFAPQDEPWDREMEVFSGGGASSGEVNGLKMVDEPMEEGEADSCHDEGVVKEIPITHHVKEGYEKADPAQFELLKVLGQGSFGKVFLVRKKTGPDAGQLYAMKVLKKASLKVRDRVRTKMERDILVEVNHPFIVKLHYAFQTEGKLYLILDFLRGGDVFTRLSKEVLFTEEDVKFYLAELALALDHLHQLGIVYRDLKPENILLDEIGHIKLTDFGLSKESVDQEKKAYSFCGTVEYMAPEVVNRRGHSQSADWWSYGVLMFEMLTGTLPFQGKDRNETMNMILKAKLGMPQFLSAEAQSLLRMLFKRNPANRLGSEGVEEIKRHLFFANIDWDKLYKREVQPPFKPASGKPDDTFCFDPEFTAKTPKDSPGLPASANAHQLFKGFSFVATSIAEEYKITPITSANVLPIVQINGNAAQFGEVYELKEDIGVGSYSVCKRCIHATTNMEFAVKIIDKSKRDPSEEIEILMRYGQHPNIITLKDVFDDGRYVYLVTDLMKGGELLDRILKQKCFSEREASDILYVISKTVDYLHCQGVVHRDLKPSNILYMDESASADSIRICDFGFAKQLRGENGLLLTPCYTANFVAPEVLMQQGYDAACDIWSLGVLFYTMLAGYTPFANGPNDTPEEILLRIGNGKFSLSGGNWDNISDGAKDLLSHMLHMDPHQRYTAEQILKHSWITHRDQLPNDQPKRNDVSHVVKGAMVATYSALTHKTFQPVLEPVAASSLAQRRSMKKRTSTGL
Ephrin type-A receptor 1 (Homo sapiens), sequence (P21709 whole entry): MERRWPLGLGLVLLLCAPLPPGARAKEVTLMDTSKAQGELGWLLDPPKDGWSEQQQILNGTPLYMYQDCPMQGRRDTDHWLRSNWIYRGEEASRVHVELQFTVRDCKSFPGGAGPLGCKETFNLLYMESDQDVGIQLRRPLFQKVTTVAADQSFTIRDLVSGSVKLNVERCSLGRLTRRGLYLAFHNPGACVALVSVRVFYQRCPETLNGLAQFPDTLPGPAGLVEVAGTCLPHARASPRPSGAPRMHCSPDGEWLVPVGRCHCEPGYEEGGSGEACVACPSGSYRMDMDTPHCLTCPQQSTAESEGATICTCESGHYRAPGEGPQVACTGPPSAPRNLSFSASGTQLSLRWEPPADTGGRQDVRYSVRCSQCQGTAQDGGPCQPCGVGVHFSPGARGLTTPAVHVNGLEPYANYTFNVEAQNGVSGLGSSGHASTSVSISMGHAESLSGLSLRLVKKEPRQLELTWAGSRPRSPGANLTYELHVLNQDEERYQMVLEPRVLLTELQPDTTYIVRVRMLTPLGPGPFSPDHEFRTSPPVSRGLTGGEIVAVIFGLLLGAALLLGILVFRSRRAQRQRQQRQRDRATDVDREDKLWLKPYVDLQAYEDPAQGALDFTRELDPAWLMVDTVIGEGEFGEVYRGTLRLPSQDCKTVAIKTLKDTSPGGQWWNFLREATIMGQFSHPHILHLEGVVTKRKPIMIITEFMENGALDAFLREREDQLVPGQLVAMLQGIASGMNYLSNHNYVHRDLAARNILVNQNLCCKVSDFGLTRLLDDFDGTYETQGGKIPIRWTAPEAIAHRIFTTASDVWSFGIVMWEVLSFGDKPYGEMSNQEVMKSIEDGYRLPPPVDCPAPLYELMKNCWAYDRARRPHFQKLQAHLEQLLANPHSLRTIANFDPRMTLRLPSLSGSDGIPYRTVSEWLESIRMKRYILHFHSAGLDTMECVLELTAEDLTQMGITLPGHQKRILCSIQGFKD
Serine/threonine-protein kinase B-raf (Homo sapiens), P15056 [V600E], sequence (P15056 whole entry V600E): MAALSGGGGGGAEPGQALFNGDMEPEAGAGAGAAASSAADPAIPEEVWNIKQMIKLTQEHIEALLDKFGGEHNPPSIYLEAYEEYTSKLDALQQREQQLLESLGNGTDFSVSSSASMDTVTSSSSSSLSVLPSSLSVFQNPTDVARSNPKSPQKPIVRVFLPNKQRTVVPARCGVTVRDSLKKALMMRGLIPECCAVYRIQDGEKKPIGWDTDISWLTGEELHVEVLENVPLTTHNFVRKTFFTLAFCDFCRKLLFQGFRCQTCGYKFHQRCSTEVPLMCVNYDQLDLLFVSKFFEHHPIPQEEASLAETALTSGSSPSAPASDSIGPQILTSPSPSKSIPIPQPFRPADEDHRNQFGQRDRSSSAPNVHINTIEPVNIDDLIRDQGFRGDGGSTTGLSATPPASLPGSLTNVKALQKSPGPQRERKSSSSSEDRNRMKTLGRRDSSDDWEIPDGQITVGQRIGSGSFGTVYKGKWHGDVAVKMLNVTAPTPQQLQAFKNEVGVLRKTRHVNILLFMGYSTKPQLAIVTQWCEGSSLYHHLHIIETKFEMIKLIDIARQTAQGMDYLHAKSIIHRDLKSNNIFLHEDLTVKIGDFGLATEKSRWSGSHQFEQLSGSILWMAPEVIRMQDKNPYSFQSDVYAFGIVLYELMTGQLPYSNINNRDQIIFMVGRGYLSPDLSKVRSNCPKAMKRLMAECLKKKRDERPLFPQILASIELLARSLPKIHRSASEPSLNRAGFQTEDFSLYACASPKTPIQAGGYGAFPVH
D(1A) dopamine receptor (Homo sapiens), sequence (P21728 whole entry): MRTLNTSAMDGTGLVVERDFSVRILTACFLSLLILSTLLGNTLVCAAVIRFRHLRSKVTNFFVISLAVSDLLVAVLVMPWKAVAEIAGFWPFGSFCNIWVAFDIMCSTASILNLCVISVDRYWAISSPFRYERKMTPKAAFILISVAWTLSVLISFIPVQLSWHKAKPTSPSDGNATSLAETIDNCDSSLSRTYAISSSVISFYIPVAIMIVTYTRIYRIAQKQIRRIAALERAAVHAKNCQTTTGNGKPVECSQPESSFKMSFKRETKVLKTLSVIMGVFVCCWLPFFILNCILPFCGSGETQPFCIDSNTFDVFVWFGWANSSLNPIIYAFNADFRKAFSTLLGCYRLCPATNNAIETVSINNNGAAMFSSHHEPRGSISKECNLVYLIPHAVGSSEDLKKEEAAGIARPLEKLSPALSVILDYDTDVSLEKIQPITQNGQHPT
Phosphatidylinositol 4-phosphate 3-kinase C2 domain-containing subunit beta (Homo sapiens), sequence (O00750 whole entry, the tested form may be a part): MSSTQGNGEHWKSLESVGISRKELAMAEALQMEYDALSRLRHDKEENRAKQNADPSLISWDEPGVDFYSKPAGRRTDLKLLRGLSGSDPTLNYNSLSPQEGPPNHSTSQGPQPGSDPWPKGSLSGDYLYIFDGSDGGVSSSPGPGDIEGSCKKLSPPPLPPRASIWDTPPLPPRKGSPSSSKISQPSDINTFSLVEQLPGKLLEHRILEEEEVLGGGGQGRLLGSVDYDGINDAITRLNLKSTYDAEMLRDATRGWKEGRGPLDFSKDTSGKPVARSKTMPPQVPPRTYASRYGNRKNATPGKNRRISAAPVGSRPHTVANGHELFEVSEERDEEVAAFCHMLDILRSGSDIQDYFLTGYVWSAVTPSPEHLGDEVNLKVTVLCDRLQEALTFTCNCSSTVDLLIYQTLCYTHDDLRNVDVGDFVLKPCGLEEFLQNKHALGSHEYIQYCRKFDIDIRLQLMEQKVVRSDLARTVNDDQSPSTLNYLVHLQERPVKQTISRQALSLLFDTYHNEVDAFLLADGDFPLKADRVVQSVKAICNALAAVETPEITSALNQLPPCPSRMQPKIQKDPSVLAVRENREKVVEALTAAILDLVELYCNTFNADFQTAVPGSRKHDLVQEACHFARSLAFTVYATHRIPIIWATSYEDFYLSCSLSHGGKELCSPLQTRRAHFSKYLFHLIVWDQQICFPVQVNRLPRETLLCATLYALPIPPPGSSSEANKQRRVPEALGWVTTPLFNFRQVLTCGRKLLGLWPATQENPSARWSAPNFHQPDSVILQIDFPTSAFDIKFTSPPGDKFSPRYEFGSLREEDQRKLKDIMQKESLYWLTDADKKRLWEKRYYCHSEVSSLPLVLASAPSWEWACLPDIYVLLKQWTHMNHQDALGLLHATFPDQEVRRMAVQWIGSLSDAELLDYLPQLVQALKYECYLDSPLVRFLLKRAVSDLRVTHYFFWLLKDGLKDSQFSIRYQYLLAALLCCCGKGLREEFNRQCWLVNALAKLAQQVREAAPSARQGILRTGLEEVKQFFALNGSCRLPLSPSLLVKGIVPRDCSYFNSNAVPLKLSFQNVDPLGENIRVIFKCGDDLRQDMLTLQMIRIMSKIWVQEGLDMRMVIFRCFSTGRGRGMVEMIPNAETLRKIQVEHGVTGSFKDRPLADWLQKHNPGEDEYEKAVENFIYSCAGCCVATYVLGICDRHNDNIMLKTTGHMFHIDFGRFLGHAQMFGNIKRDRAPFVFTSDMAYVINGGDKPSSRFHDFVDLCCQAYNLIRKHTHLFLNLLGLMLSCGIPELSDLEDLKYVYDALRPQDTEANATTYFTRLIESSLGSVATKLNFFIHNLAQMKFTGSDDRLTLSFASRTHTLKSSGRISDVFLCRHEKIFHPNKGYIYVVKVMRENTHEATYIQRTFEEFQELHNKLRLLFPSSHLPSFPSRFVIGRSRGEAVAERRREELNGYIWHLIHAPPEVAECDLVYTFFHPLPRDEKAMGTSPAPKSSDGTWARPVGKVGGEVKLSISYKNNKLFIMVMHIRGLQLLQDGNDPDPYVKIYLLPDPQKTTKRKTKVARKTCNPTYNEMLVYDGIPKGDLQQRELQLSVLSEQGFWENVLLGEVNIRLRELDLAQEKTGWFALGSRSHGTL
Mitogen-activated protein kinase 8 (Homo sapiens), sequence (P45983 whole entry): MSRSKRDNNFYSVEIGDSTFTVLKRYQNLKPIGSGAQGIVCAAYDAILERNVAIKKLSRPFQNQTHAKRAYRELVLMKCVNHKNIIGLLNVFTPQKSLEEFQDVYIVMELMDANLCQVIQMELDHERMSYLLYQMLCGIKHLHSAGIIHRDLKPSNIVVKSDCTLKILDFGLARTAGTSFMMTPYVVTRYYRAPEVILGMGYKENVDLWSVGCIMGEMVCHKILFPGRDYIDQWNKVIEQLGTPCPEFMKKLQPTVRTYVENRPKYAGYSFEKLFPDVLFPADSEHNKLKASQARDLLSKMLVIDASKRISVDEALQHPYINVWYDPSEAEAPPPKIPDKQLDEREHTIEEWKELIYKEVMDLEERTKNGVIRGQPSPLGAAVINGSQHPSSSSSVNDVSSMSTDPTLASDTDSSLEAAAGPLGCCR

CCC(=N\O)/C(C)=C/c1ccc(F)c(C)c1 [A-226]
inactive: residual activity [1] 80% | residual activity [2] 100% | residual activity [3] 100% | residual activity [4] 67% | residual activity [5] 100% | residual activity [6] 100% | residual activity [7] 100% | residual activity [8] 98% | residual activity [9] 100% | residual activity [10] 100% | inhibition [11] -3.74% | residual activity [12] 85% | residual activity [13] 100% | residual activity [15] 55% | residual activity [16] 100% | residual activity [17] 100% | residual activity [18] 70% | residual activity [19] 83% | residual activity [20] 57% | residual activity [21] 100% | residual activity [22] 100% | residual activity [23] 100% | residual activity [24] 100% | residual activity [25] 100% | residual activity [26] 100% | residual activity [27] 97% | residual activity [28] 100% | inhibition [29] -8.35% | residual activity [30] 100% | residual activity [31] 100% | residual activity [32] 100% | residual activity [33] 100% | residual activity [34] 100% | inhibition [35] -0.91% | residual activity [36] 85% | residual activity [37] 100% | residual activity [38] 100% | residual activity [39] 100% | residual activity [40] 83% | residual activity [41] 83% | residual activity [42] 100% | residual activity [43] 100% | inhibition [44] 4.47% | residual activity [45] 100%
active: residual activity [14] 38%

CCC(=N\O)/C(C)=C/c1ccc(F)cc1 [A-079]
inactive: residual activity [1] 96% | residual activity [2] 79% | residual activity [3] 100% | residual activity [4] 83% | residual activity [5] 100% | residual activity [6] 100% | residual activity [7] 77% | residual activity [8] 94% | residual activity [9] 76% | residual activity [10] 82% | inhibition [11] -4.38% | residual activity [12] 89% | residual activity [13] 100% | residual activity [14] 96% | residual activity [15] 92% | residual activity [16] 100% | residual activity [17] 100% | residual activity [18] 88% | residual activity [19] 78% | residual activity [20] 100% | residual activity [21] 83% | residual activity [22] 60% | residual activity [23] 100% | residual activity [24] 78% | residual activity [25] 87% | residual activity [26] 90% | residual activity [27] 75% | residual activity [28] 94% | inhibition [29] -9.69% | residual activity [30] 84% | residual activity [31] 100% | residual activity [32] 94% | residual activity [33] 73% | residual activity [34] 78% | inhibition [35] 13.4% | residual activity [36] 100% | residual activity [37] 82% | residual activity [38] 86% | residual activity [39] 81% | residual activity [40] 96% | residual activity [41] 82% | residual activity [42] 80% | residual activity [43] 78% | inhibition [44] 6.66% | residual activity [45] 95%

Reference: ChEMBL document CHEMBL4507256 (2021)
